Measured values from patent US7709443B2, “Cyclic peptide antitumor agents” (Northwestern University, priority 2003, dated 2010).
≈ marks a conversion by molar mass, not a printed value. Like-named read-outs stand apart in the source and are kept apart here. Square brackets hold non-standard residues; d marks the D form. Peptide text beside a SMILES is read from it. Phe(4-Br) = N[C@@H](Cc1ccc(Br)cc1)C(=O)O; Phe(4-I) = N[C@@H](Cc1ccc(I)cc1)C(=O)O; NMeF = CN[C@@H](Cc1ccccc1)C(=O)O; Hica(2S) = CC(C)C[C@H](O)C(=O)O; NMeL = CN[C@@H](CC(C)C)C(=O)O; NMeV = CN[C@H](C(=O)O)C(C)C

Columns and labels:
[1] = test system: PC-3 (Prostate) human cancer cell line; conditions: three days
Description: (§1) Cells were plated at 5,000 cells per well in 24-well plates, treated for three days, then counted. Cell number was normalized to the number of cells in untreated control (DMSO) cells, also after three days.

[2] = test system: MDA-MB231 (Breast) human cancer cell line; conditions: three days
Description: as §1

[3] = test system: WM115 (Melanoma) human cancer cell line; conditions: three days
Description: as §1

[4] = test system: HCT-116 (human colon carcinoma); test: cells; conditions: for times more potent than sansalvamide A toward HCT-116: relative to sansalvamide A
From the text: The HCT-116 human colon adenocarcinoma screen is a tissue culture first line assay to detect inherent cytotoxicity against malignant cancer cells. This strain is considered to be an “indicator strain” by many for the selection of inhibitors that target solid tumors. The assay is a calorimetric endpoint assay which can be produced in 96-well format trays. Data are acquired by plate reader and dose response curves are produced by computer analysis. […] This assay is run routinely as described below and would be understood in the art.
1. Media (1000 mL McCoy's 5A Medium, 114 mL Fetal Bovine Serum, 25 mL Hepes buffer solution (IM), 12.5 mL Penicillin-Streptomycin solution)
2. Cell line (HCT-116, human colon cancer cell line)
3. Indicator (MTS and PMS in DPBS)
5. Standard anticancer drug (etoposide (VP-16); stock is 4 mg/mL in DMSO
6. DPBS (without CaCl2 and MgCl2)
1. Remove medium from the cells and rinse with 10 mL sterile DPBS.
3. Allow to stand in hood for 1 minute.
4. Remove trypsin with sterile pipette.
5. Allow flask to stand in hood for 2-5 minutes.
6. Add 10 mL of media to flask and pipette up and down to gently break up cell clumps.
7. Count the number of cells using a hemacytometer.
8. Determine # of plates needed, and total volume of cell suspension (16 or 18 mL per plate).
9. Dilute cells to a final concentration of 2.5×10^4 cells/mL in a sterile flask.
10. Pour cell suspension into a sterile trough.
For Serial Dilution Plates
1. Add 175 μL to each well in the first row of a 96 well plate.
2. Add 150 μL to the rest of the wells in A1-A10 & A12.
3. In row 11 add 150 μL cell suspension to the first 6 wells and only media to the last two.
For Single Concentration Plates
1. Add 150 μL of sterile media to G11 & H11.
2. Add 150 μL of cell suspension to all other wells.
3. Add 25 μL more to well H1.
Incubate plates overnight at 37° C. & 5% CO2
1. Add 25 μL of test compounds @ 10 mg/mL to A1-A10, 25 μL of DMSO to A11 & 25 μL of etoposide (4 mg/mL) to A12.
2. Using a twelve channel pipette, mix well then remove 50 μL from the first row and transfer to the next row, repeat down the plate until row F, then remove tip # 11 and continue down plate discarding the last 50 μL.
3. Incubate plates for 72 h.
1. Add 20 μL of MTS/PMS solution to each well.
3. Read plates @490 nm on plate reader.

Row | Compound | Fold Induction Over DMSO control ([1]; PC-3, 1 μM) | Fold Induction Over DMSO control ([1]; PC-3, 10 μM) | Fold Induction Over DMSO control ([2]; MDA-MB231, 1 μM) | Fold Induction Over DMSO control ([2]; MDA-MB231, 10 μM) | Fold Induction Over DMSO control ([3]; WM115, 1 μM) | Fold Induction Over DMSO control ([3]; WM115, 10 μM) | IC50 ([4]; HCT-116 bioassay, Table 1) [µg/mL] | times more potent than sansalvamide A toward HCT-116 [4] | IC50 ([4]; Homo sapiens, HCT-116) [µg/mL]
1 | CC(C)C[C@@H]1NC(=O)[C@H](C(C)C)NC(=O)[C@H](CC(C)C)NC(=O)[C@H](CC(C)C)N(C)C(=O)[C@H](Cc2ccccc2)NC1=O [Compound 1b] (cyclo(F[NMeL]LVL)) | 1.24 | 0.81 | 0.87 | 0.71 | 1.02 | 3.02 |  |  | 
2 | CC(C)C[C@@H]1NC(=O)[C@H](Cc2ccc(Br)cc2)NC(=O)[C@H](CC(C)C)NC(=O)[C@H](C(C)C)N(C)C(=O)[C@H](CC(C)C)NC1=O [Compound 1g] (cyclo([Phe(4-Br)]LL[NMeV]L)) | 0.74 | 0.67 | 0.88 | 0.31 | 1.02 | 0.84 |  |  | 
3 | CC(C)C[C@@H]1NC(=O)[C@H](Cc2ccccc2)NC(=O)[C@H](CC(C)C)NC(=O)[C@H](C(C)C)NC(=O)[C@H](CC(C)C)NC1=O [Compound 1, sansalvamide A peptide] (cyclo(FLLVL)) | 1.03 | 0.90 | 0.91 | 0.69 | 0.92 | 0.56 | 0.98 (≈ 1.67 µM) | about 10 times | 
4 | CC(C)C[C@@H]1NC(=O)[C@H](C(C)C)NC(=O)[C@H](CC(C)C)N(C)C(=O)[C@H](CC(C)C)NC(=O)[C@H](Cc2ccc(Br)cc2)NC1=O [drawing 9] (cyclo([Phe(4-Br)]L[NMeL]VL)) |  |  |  |  |  |  | 0.11 (≈ 0.162 µM) | ~100 times | 
5 | CC(C)C[C@@H]1NC(=O)[C@H](C(C)C)NC(=O)[C@H](CC(C)C)N(C)C(=O)[C@H](CC(C)C)NC(=O)[C@H](Cc2ccc(Br)cc2)NC1=O [Compound 1e] (cyclo([Phe(4-Br)]L[NMeL]VL)) | 0.62 | 0.82 | 1.20 | 0.82 | 0.89 | 0.95 |  |  | 
6 | CC(C)C[C@@H]1NC(=O)[C@H](C(C)C)NC(=O)[C@H](CC(C)C)OC(=O)[C@H](CC(C)C)NC(=O)[C@H](Cc2ccc(Br)cc2)NC1=O (cyclo(L[Phe(4-Br)]L[Hica(2S)]V)) |  |  |  |  |  |  | 4.5 (≈ 6.76 µM) |  | 
7 | COc1cc([C@@H]2c3cc4c(cc3[C@@H](O[C@@H]3O[C@@H]5CO[C@@H](C)O[C@H]5[C@H](O)[C@H]3O)[C@H]3COC(=O)[C@H]23)OCO4)cc(OC)c1O [etoposide, reference compound] |  |  |  |  |  |  |  |  | 1.5 (≈ 2.55 µM)
8 | CC(C)C[C@@H]1NC(=O)[C@H](Cc2ccccc2)NC(=O)[C@H](CC(C)C)N(C)C(=O)[C@H](C(C)C)NC(=O)[C@H](CC(C)C)NC1=O [Compound 1h] (cyclo(FLLV[NMeL])) | 0.79 | 0.64 | 1.01 | 0.28 | 1.13 | 0.51 |  |  | 
9 | CC(C)C[C@@H]1NC(=O)[C@H](C(C)C)NC(=O)[C@H](CC(C)C)OC(=O)[C@H](CC(C)C)NC(=O)[C@H](Cc2ccc(I)cc2)NC1=O (cyclo(L[Phe(4-I)]L[Hica(2S)]V)) |  |  |  |  |  |  | 11.3 (≈ 15.9 µM) |  | 
10 | CC(C)C[C@@H]1NC(=O)[C@H](Cc2ccccc2)NC(=O)[C@H](CC(C)C)NC(=O)[C@H](C(C)C)N(C)C(=O)[C@H](CC(C)C)NC1=O [Compound 1f] (cyclo(FLL[NMeV]L)) | 0.92 | 0.74 | 1.04 | 0.26 | 1.00 | 1.06 |  |  | 
11 | CC(C)C[C@@H]1NC(=O)[C@H](CC(C)C)NC(=O)[C@H](Cc2ccccc2)N(C)C(=O)[C@H](CC(C)C)NC(=O)[C@H](C(C)C)NC1=O [Compound 1j] (cyclo([NMeF]LLVL)) | 0.86 | 0.8 | 0.78 | 0.82 | 1.75 | 0.60 |  |  | 
12 | CC(C)C[C@@H]1NC(=O)[C@H](C(C)C)NC(=O)[C@H](CC(C)C)N(C)C(=O)[C@H](CC(C)C)NC(=O)[C@H](Cc2ccccc2)NC1=O [Compound 1d] (cyclo(FL[NMeL]VL)) | 0.63 | 0.52 | 1.09 | 0.91 | 0.87 | 0.98 |  |  | 
13 | CC(C)C[C@@H]1NC(=O)[C@H](Cc2ccc(Br)cc2)NC(=O)[C@H](CC(C)C)NC(=O)[C@H](C(C)C)NC(=O)[C@H](CC(C)C)NC1=O [Compound 1a] (cyclo([Phe(4-Br)]LLVL)) | 0.94 | 0.74 | 0.95 | 0.60 | 0.85 | 0.99 |  |  | 
